# Measurements published in patent publication US10144746B2 (GLOBAL BLOOD THERAPEUTICS, INC., priority 2015, dated 2018).
# Target: Human plasma kallikrein (Homo sapiens (Human), UniProt P03952)
# Assay: In vitro plasma kallikrein inhibition assay (chromogenic substrate D-Pro-Phe-Arg-pNa, absorbance at 405 nm, IC50 determination)
# Assay type: biochemical
# Settings: read-out: KLKB1 pIC50 (converted)
# Method: In Vitro Plasma Kallikrein Inhibition Assay
# The chromogenic substrate D-Pro-Phe-Arg-pNa, 2HCl (BIOPHEN CS-31(02) from Hyphen BioMed, Neuville-Sur-oise, France) was dissolved in 5 mL deionized water and stored at 4° C. […] All other chemicals were of analytical grade.
# A stock solution of 7 μM in 50% glycerol was stored at −20° C.
# Enzyme reactions were conducted in “assay buffer” comprised of 20 mM HEPES at pH 7.4, 150 mM NaCl, 0.1% PEG-8000 and 0.01% Triton X-100.
# Both enzyme and substrate were diluted in assay buffer.
# Plate measurements were conducted using a SPECTROStar Nano reader (BMG Labtech, San Francisco, Calif., USA). […] We used discrete wavelength, precise, kinetic reads of 15 cycles with a 60 sec cycle time.
# Determination of IC50 values
# The test compound was dissolved in 100% DMSO. The compounds were serially diluted in DMSO in a 7 point dose response. For the assays, 66.5 μL of protease solution (protease in assay buffer) was added per well followed by the addition of 8.5 μL of compound in 100% DMSO. […] After 30 min. incubation at room temperature on an orbital shaker, the reactions were started by the addition of 10 μL substrate solution (in assay buffer, final assay concentration was 600 uM). After the addition of the substrate solution the final DMSO concentration was 10%. The plate was placed again on the shaker for 5 sec, spun at 2000 rpm for 5 sec and read on the spectrophotometer. […] The IC50 value was calculated from the plot of rate vs. inhibitor concentration by a 4 parameter logistic equation: y=A+((B−A)/([…]))
# where y is the rate at the inhibitor concentration, x. A is the minimum y value at the highest inhibitor concentration and B is the y value in the absence of inhibitor, C is the IC50 value and D is the slope factor. The curve fitting was conducted with the non-linear regression routine of the analysis software XLfit (IDBS, version 5.3.1).
# Chain of Human plasma kallikrein (P03952 391-638): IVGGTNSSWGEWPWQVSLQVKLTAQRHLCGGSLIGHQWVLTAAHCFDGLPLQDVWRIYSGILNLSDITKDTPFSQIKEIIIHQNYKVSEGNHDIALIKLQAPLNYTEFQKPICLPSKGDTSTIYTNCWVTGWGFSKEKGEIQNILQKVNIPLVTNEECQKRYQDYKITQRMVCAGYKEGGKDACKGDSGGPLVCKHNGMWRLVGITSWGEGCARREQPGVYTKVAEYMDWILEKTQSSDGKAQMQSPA
# Chain of Human plasma kallikrein (P03952 20-390 partner): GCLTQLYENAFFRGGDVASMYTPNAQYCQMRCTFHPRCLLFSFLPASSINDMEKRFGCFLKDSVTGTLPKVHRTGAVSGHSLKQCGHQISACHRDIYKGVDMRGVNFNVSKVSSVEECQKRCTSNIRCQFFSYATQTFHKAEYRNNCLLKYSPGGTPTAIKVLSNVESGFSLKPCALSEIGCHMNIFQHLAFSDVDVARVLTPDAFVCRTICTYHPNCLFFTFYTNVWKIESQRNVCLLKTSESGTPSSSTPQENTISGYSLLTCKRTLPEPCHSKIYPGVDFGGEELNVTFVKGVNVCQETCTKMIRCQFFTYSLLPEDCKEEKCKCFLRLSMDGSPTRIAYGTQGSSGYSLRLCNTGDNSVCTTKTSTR
row,SMILES,IC50 [nM]
1,"CCc1cc(N)nc(C)c1CNC(=O)c1ccc2c(c1)C1OC2c2ccc(-c3ccc(C)cc3C#N)cc21 (racemic) [Example 136, (±)-N-[(6-amino-4-ethyl-2-methylpyridin-3-yl)methyl]-12-(2-cyano-4-methylphenyl)-15-oxatetracyclo[6.6.1.0^2,^7.0^9,1^4] pentadeca-2,4,6,9,11,13-hexaene-4-carboxamide]",3.98
2,"Cc1ccc(-c2ccc3c(c2)C2OC3c3ccc(C(=O)NCc4c(C)cc5c(c4C)CNC5)cc32)c(C#N)c1 (racemic) [Example 137, (±)-12-(2-cyano-4-methylphenyl)-N-[(4,6-dimethyl-2,3-dihydro-1H-isoindol-5-yl)methyl]-15-oxatetracyclo[6.6.1.0^2,^7.0^9,1^4] pentadeca-2,4,6,9,11,13-hexaene-4-carboxamide]",437
3,"Cc1cc(N)nc(C)c1CNC(=O)c1ccc2c(c1)C1OC2c2ccc(-c3c(C)cc(F)cc3F)cc21 (racemic) [Example 141, (±)-N-[(6-amino-2,4-dimethlpyridin-3-yl)-methyl]-12-(2,4-difluoro-6-methylphenyl)-15-oxatetracyclo[6.6.1.0^2,^7.0^9,1^4] pentadeca-2,4,6,9,11,13-hexaene-4-carboxamide]",105
4,"CCc1cc(N)nc(C)c1CNC(=O)c1ccc2c(c1)C1OC2c2ccc(-c3c(C)cc(F)cc3F)cc21 (racemic) [Example 142, (±)-N-[(6-amino-4-ethyl-2-methylpyridin-3-yl)-methyl]-12-(2,4-difluoro-6-methylphenyl)-15-oxatetracyclo[6.6.1.0^2,^7.0^9,1^4] pentadeca-2,4,6,9,11,13-hexaene-4-carboxamide]",1620
5,"Cc1ccc(-c2ccc3c(c2)C2OC3c3ccc(C(=O)NCc4c(F)cc5c(c4C)CNC5)cc32)c(C#N)c1 (racemic) [Example 143, (±)-12-(2-cyano-4-methylphenyl)-N-[(6-fluoro-4-methyl-2,3-dihydro-1H-isoindol-5-yl)methyl]-15-oxatetracyclo [6.6.1.0^2,^7.0^9,1^4]pentadeca-2,4,6,9,11,13-hexaene-4-carboxamide]",288
6,"Cc1cc(N)nc(C)c1CNC(=O)c1ccc2c(c1)C1OC2c2ccc(-c3c(F)cc(F)cc3Cl)cc21 (racemic) [Example 146, (±)-N-[(6-amino-2,4-dimethylpyridin-3-yl)-methyl]-12-(2-chloro-4,6-difluorophenyl)-15-oxatetracyclo[6.6.1.0^2,^7.0^9,1^4] pentadeca-2,4,6,9,11,13-hexaene-4-carboxamide]",148
7,"Cc1cc(CN)cc(C)c1CNC(=O)c1ccc2c(c1)C1OC2c2ccc(-c3ccc(F)cc3F)cc21 (racemic) [Example 147, (±)-N-{[4-(aminomethyl)-2,6-dimethylphenyl]-methyl}-12-(2,4-difluorophenyl)-15-oxatetracyclo[6.6.1.0^2,^7.0^9,1^4] pentadeca-2,4,6,9,11,13-hexaene-4-carboxamide]",372
8,"Nc1nccc2c(CNC(=O)c3ccc4c(c3)C3OC4c4ccc(-c5ccc(F)cc5F)cc43)cccc12 (racemic) [Example 148, (±)-N-[(1-aminoisoquinolin-5-yl)methyl]-12-(2,4-difluorophenyl)-15-oxatetracyclo [6.6.1.0^2,^7.0^9,1^4]-pentadeca-2,4,6,9,11,13-hexaene-4-carboxamide]",85.1
9,"COc1ccc(Oc2ccc3c(c2)C2OC3c3ccc(C(=O)NCc4c(C)cc(N)nc4C)cc32)cn1 (racemic) [Example 152, (±)-N-[(6-amino-2,4-dimethylpyridin-3-yl)-methyl]-12-[(6-methoxypyridin-3-yl)oxy]-15-(oxatetracyclo[6.6.1.0^2,^7.0^9,1^4]pentadeca-2,4,6,9,11,13-hexaene-4-carboxamide]",1260
10,"Cc1cnn(Cc2ccc3c(c2)C2OC3c3ccc(C(=O)NCc4c(F)cc5c(c4C)CNC5)cc32)c1 (racemic) [Example 153, (±)-N-[(6-fluoro-4-methyl-2,3-dihydro-1H-isoindol-5-yl)methyl]-12-[(4-methyl-1H-pyrazol-1-yl)methyl]-15-oxatetracyclo[6.6.1.0^2,^7.0^9,1^4]-pentadeca-2,4,6,9,11,13-hexaene-4-carboxamide]",204
11,"Nc1nccc2ccc(CNC(=O)c3ccc4c(c3)C3OC4c4ccc(-c5ccc(F)cc5F)cc43)cc12 (racemic) [Example 154, (±)-N-[(1-aminoisoquinolin-7-yl)methyl]-12-(2,4-difluorophenyl)-15-oxatetracyclo [6.6.1.0^2,^7.0^9,1^4]-pentadeca-2,4,6,9,11,13-hexaene-4-carboxamide]",3720

# Further lines, results first:
row,IC50 [nM],SMILES
1,11,"CCOc1cc(N)nc(C)c1CNC(=O)c1ccc2c(c1)C1OC2c2ccc(Cn3cccn3)cc21 (racemic) [Example 133, (±)-N-[(6-amino-4-ethoxy-2-methylpyridin-3-yl)methyl]-12-[(1H-pyrazol-1-yl)methyl]-15-oxatetracyclo[6.6.1.0^2,^7.0^9,1^4] pentadeca-2,4,6,9,11,13-hexaene-4-carboxamide]"
2,2,"CCOc1cc(N)nc(C)c1CNC(=O)c1ccc2c(c1)C1OC2c2ccc(Cn3cc(C)cn3)cc21 (racemic) [Example 134, (±)-N-[(6-amino-4-ethoxy-2-methylpyridin-3-yl)methyl]-12-[(4-methyl-1H-pyrazol-1-yl)methyl]-15-oxatetracyclo[6.6.1.0^2,^7.0^9,1^4]-pentadeca-2,4,6,9,11,13-hexaene-4-carboxamide]"
3,19.5,"CCc1cc(N)nc(C)c1CNC(=O)c1ccc2c(c1)C1OC2c2ccc(-c3ccc(F)cc3F)cc21 (racemic) [Example 135, (±)-N-[(6-amino-4-ethyl-2-methylpyridin-3-yl)methyl]-12-(2,4-difluorophenyl)-15-oxatetracyclo[6.6.1.0^2,^7.0^9,1^4] pentadeca-2,4,6,9,11,13-hexaene-4-carboxamide]"
4,6310,"Cc1cc(N)nc(C)c1CNC(=O)c1ccc2c(c1)C1OC2c2ccc(Oc3cccnc3)cc21 (racemic) [Example 144, (±)-N-[(6-amino-2,4-dimethylpyridin-3-yl)methyl]-12-(pyridin-3-yloxy)-15-oxatetracyclo[6.6.1.0^2,^7.0^9,1^4] pentadeca-2,4,6,9,11,13-hexaene-4-carboxamide]"
5,5890,"Cc1cc(N)nc(C)c1CNC(=O)c1ccc2c(c1)C1OC2c2ccc(-n3ccc(=O)cc3)cc21 (racemic) [Example 149, (±)-N-[(6-amino-2,4-dimethylpyridin-3-yl]-methyl]-12-(4-oxo-1,4-dihydropyridin-1-yl)-15-oxatetracyclo[6.6.1.0^2,^7.0^9,1^4] pentadeca-2,4,6,9,11,13-hexaene-4-carboxamide]"
6,34.7,"COc1cc(N)nc(C)c1CNC(=O)c1ccc2c(c1)C1OC2c2ccc(-c3c(C)cc(F)cc3F)cc21 (racemic) [Example 150, (±)-N-[(6-amino-4-methoxy-2-methylpyridin-3-yl)methyl]-12-(2,4-difluoro-6-methylphenyl)-15-oxatetracyclo[6.6.1.0^2,^7.0^9,1^4] pentadeca-2,4,6,9,11,13-hexaene-4-carboxamide]"
7,195,"CCOc1cc(N)nc(C)c1CNC(=O)c1ccc2c(c1)C1OC2c2ccc(-c3c(C)cc(F)cc3F)cc21 (racemic) [Example 151, (±)-N-[(6-amino-4-ethoxy-2-methylpyridin-3-yl)-methyl]-12-(2,4-difluoro-6-methylphenyl)-15-oxatetracyclo[6.6.1.0^2,^7.0^9,1^4] pentadeca-2,4,6,9,11,13-hexaene-4-carboxamide]"
